From publication PMC12196347, “Evaluating Triazole-Substituted Pyrrolopyrimidines as CSF1R Inhibitors” (Molecules, 2025)
In brackets after ≈: the same amount, converted by molar mass.

Assays:
[1] = biological target: T1, CSF1R (Homo sapiens, UniProt P07333); assay: CSF1R enzymatic inhibition, TR-FRET-based LANCE Ultra assay; format: biochemical; details: single 8-point titrations, ATP concentration 25 µM, read-out: Enz. IC50
T1 sequence (P07333 539-972 limits assumed): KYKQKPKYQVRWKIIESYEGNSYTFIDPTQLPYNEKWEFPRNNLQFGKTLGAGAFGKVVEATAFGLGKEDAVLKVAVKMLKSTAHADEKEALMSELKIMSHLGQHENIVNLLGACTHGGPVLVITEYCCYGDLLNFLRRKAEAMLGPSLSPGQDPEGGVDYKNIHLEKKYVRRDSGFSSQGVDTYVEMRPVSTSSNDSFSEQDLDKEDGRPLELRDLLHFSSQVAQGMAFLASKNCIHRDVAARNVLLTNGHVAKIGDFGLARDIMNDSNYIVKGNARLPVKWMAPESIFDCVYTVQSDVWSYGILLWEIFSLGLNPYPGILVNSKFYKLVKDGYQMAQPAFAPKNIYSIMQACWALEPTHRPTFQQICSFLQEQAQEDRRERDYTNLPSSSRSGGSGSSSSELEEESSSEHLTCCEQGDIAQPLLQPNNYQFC

[2] = test system: CSF1R Ba/F3 cells; assay: Cell viability assay, Ba/F3 cells engineered to be dependent on CSF1R; format: cell-based; details: duplicate measurements; for IC50: Mus musculus, BaF3, Ba/F3 cells dependent on CSF1R; for CSF1R Ba/F3 IC50: Ba/F3 cells dependent on CSF1R
[3] = test system: IL-3 dependent Ba/F3 cell line (CSF1R independent); assay: Control assay for cellular toxicity, Ba/F3 cells dependent on IL-3; format: cell-based; details: Mus musculus, BaF3; Ba/F3 cells dependent on IL-3, control for cellular toxicity
[4] = Kinetic solubility, spectrophotometric; format: physicochemical; details: aqueous buffer, kinetic from dmso stock, spectrophotometrically at pH 7.4 in HEPES buffer

IC50 [1]	IC50 [2]	solubility kinetic [4]	CSF1R Ba/F3 IC50 [2]	Structure (SMILES)	IC50 [3]
< 1 nM	1500 ± 500 nM	7.2 µM (≈ 3.12 µg/mL)		COc1ccc(Cn2cc(-c3cc4c(N(C)CC5CCOCC5)ncnc4[nH]3)nn2)cc1 [Compound 26b, 6-(1-(4-Methoxybenzyl)-1H-1,2,3-triazol-4-yl)-N-methyl-N-((tetrahydro-2H-pyran-4-yl)methyl)-7H-pyrrolo[2,3-d]pyrimidin-4-amine]	> 10000 nM
2.1 nM	1600 ± 300 nM	37 µM (≈ 14.4 µg/mL)		CN(CC1CCOCC1)c1ncnc2[nH]c(-c3cn(-c4cccnc4)nn3)cc12 [Compound 22b, N-Methyl-6-(1-(pyridin-3-yl)-1H-1,2,3-triazol-4-yl)-N-((tetrahydro-2H-pyran-4-yl)methyl)-7H-pyrrolo[2,3-d]pyrimidin-4-amine]	> 10000 nM
< 1 nM	> 10000 nM	76 µM (≈ 30.2 µg/mL)	No measurable cell activity	CN(CC1CCOCC1)c1ncnc2[nH]c(-c3cn(C4CCOCC4)nn3)cc12 [Compound 29b, N-Methyl-6-(1-(tetrahydro-2H-pyran-4-yl)-1H-1,2,3-triazol-4-yl)-N-((tetrahydro-2H-pyran-4-yl)methyl)-7H-pyrrolo[2,3-d]pyrimidin-4-amine]	> 10000 nM
6.3 nM	> 10000 nM	1.1 µM (≈ 0.466 µg/mL)		Cc1ccc(Cn2cc(-c3cc4c(N(C)Cc5cccc(C)c5)ncnc4[nH]3)nn2)cc1 [Compound 25a, N-Methyl-N-(3-methylbenzyl)-6-(1-(4-methylbenzyl)-1H-1,2,3-triazol-4-yl)-7H-pyrrolo[2,3-d]pyrimidin-4-amine]	> 10000 nM
1.5 nM	4600 ± 2700 nM	1.7 µM (≈ 0.717 µg/mL)		CN(CC1CCOCC1)c1ncnc2[nH]c(-c3cn(Cc4ccc(F)cc4)nn3)cc12 [Compound 24b, 6-(1-(4-Fluorobenzyl)-1H-1,2,3-triazol-4-yl)-N-methyl-N-((tetrahydro-2H-pyran-4-yl)methyl)-7H-pyrrolo[2,3-d]pyrimidin-4-amine]	> 10000 nM
< 1 nM	1000 ± 100 nM	5.5 µM (≈ 2.08 µg/mL)		Cc1cccc(CN(C)c2ncnc3[nH]c(-c4cn(CCCO)nn4)cc23)c1 [Compound 28a, 3-(4-(4-(Methyl(3-methylbenzyl)amino)-7H-pyrrolo[2,3-d]pyrimidin-6-yl)-1H-1,2,3-triazol-1-yl)propan-1-ol]	> 10000 nM
< 1 nM	3700 ± 1900 nM	4.9 µM (≈ 1.98 µg/mL)		CN(CC1CCOCC1)c1ncnc2[nH]c(-c3cn(Cc4ccccc4)nn3)cc12 [Compound 23b, 6-(1-Benzyl-1H-1,2,3-triazol-4-yl)-N-methyl-N-((tetrahydro-2H-pyran-4-yl)methyl)-7H-pyrrolo[2,3-d]pyrimidin-4-amine]	> 10000 nM
9.1 nM	3200 ± 900 nM	0.7 µM (≈ 0.282 µg/mL)		Cc1ccc(-n2cc(-c3cc4c(N(C)CC5CCOCC5)ncnc4[nH]3)nn2)cc1 [Compound 20b, N-Methyl-N-((tetrahydro-2H-pyran-4-yl)methyl)-6-(1-(p-tolyl)-1H-1,2,3-triazol-4-yl)-7H-pyrrolo[2,3-d]pyrimidin-4-amine]	> 10000 nM
< 1 nM	> 10000 nM	20 µM (≈ 8.07 µg/mL)		Cc1cccc(CN(C)c2ncnc3[nH]c(-c4cn(C5CCOCC5)nn4)cc23)c1 [Compound 29a, N-Methyl-N-(3-methylbenzyl)-6-(1-(tetrahydro-2H-pyran-4-yl)-1H-1,2,3-triazol-4-yl)-7H-pyrrolo[2,3-d]pyrimidin-4-amine]	> 10000 nM
2 nM	> 10000 nM	0.3 µM (≈ 0.123 µg/mL)		Cc1cccc(CN(C)c2ncnc3[nH]c(-c4cn(Cc5ccccc5)nn4)cc23)c1 [Compound 23a, 6-(1-Benzyl-1H-1,2,3-triazol-4-yl)-N-methyl-N-(3-methylbenzyl)-7H-pyrrolo[2,3-d]pyrimidin-4-amine]	> 10000 nM
28.2 nM	> 10000 nM	3 µM (≈ 1.23 µg/mL)		Cc1ccc(-n2cc(-c3cc4c(N(C)Cc5cccc(C)c5)ncnc4[nH]3)nn2)cc1 [Compound 20a, N-Methyl-N-(3-methylbenzyl)-6-(1-(p-tolyl)-1H-1,2,3-triazol-4-yl)-7H-pyrrolo[2,3-d]pyrimidin-4-amine]	> 10000 nM
7.7 nM	> 10000 nM	0.4 µM (≈ 0.165 µg/mL)		Cc1cccc(CN(C)c2ncnc3[nH]c(-c4cn(-c5ccc(F)cc5)nn4)cc23)c1 [Compound 19a, 6-(1-(4-Fluorophenyl)-1H-1,2,3-triazol-4-yl)-N-methyl-N-(3-methylbenzyl)-7H-pyrrolo[2,3-d]pyrimidin-4-amine]	> 10000 nM
5.8 nM	2800 ± 300 nM	4.6 µM (≈ 2.02 µg/mL)		COc1ccc(Cn2cc(-c3cc4c(N(C)Cc5cccc(C)c5)ncnc4[nH]3)nn2)cc1 [Compound 26a, 6-(1-(4-Methoxybenzyl)-1H-1,2,3-triazol-4-yl)-N-methyl-N-(3-methylbenzyl)-7H-pyrrolo[2,3-d]pyrimidin-4-amine]	> 10000 nM
< 1 nM	2400 ± 500 nM	42 µM (≈ 17.2 µg/mL)		CN1CCC(n2cc(-c3cc4c(N(C)CC5CCOCC5)ncnc4[nH]3)nn2)CC1 [Compound 30b, N-Methyl-6-(1-(1-methylpiperidin-4-yl)-1H-1,2,3-triazol-4-yl)-N-((tetrahydro-2H-pyran-4-yl)methyl)-7H-pyrrolo[2,3-d]pyrimidin-4-amine]	> 10000 nM
2.3 nM	1200 ± 200 nM	11 µM (≈ 4.36 µg/mL)		Cc1cccc(CN(C)c2ncnc3[nH]c(-c4cn(-c5cccnc5)nn4)cc23)c1 [Compound 22a, N-Methyl-N-(3-methylbenzyl)-6-(1-(pyridin-3-yl)-1H-1,2,3-triazol-4-yl)-7H-pyrrolo[2,3-d]pyrimidin-4-amine]	> 10000 nM
5.9 nM	6000 nM	1.3 µM (≈ 0.553 µg/mL)		COc1ccc(-n2cc(-c3cc4c(N(C)Cc5cccc(C)c5)ncnc4[nH]3)nn2)cc1 [Compound 21a, 6-(1-(4-Methoxyphenyl)-1H-1,2,3-triazol-4-yl)-N-methyl-N-(3-methylbenzyl)-7H-pyrrolo[2,3-d]pyrimidin-4-amine]	> 10000 nM
< 1 nM	1000 ± 200 nM	45 µM (≈ 18.5 µg/mL)		CN(CC1CCOCC1)c1ncnc2[nH]c(-c3cn(CC4CCOCC4)nn3)cc12 [Compound 31b, N-Methyl-N-((tetrahydro-2H-pyran-4-yl)methyl)-6-(1-((tetrahydro-2H-pyran-4-yl)methyl)-1H-1,2,3-triazol-4-yl)-7H-pyrrolo[2,3-d]pyrimidin-4-amine]	> 10000 nM
	> 10000 nM	14 µM (≈ 5.45 µg/mL)		CN(CC1CCOCC1)c1ncnc2[nH]c(-c3cn(-c4ccccc4)nn3)cc12 [Compound 18b, N-Methyl-6-(1-phenyl-1H-1,2,3-triazol-4-yl)-N-((tetrahydro-2H-pyran-4-yl)methyl)-7H-pyrrolo[2,3-d]pyrimidin-4-amine]	> 10000 nM
2 nM	> 10000 nM	0.2 µM (≈ 0.0855 µg/mL)		Cc1cccc(CN(C)c2ncnc3[nH]c(-c4cn(Cc5ccc(F)cc5)nn4)cc23)c1 [Compound 24a, 6-(1-(4-Fluorobenzyl)-1H-1,2,3-triazol-4-yl)-N-methyl-N-(3-methylbenzyl)-7H-pyrrolo[2,3-d]pyrimidin-4-amine]	> 10000 nM
1.1 nM	> 10000 nM	495 µM (≈ 184 µg/mL)	inactive	CN(CC1CCOCC1)c1ncnc2[nH]c(-c3cn(CCCO)nn3)cc12 [Compound 28b, 3-(4-(4-(Methyl((tetrahydro-2H-pyran-4-yl)methyl)amino)-7H-pyrrolo[2,3-d]pyrimidin-6-yl)-1H-1,2,3-triazol-1-yl)propan-1-ol]	> 10000 nM
1.9 nM	> 10000 nM	0.3 µM (≈ 0.119 µg/mL)		Cc1cccc(CN(C)c2ncnc3[nH]c(-c4cn(-c5ccccc5)nn4)cc23)c1 [Compound 18a, N-Methyl-N-(3-methylbenzyl)-6-(1-phenyl-1H-1,2,3-triazol-4-yl)-7H-pyrrolo[2,3-d]pyrimidin-4-amine]	> 10000 nM
< 1 nM	2700 ± 1000 nM	2.5 µM (≈ 1.04 µg/mL)		Cc1cccc(CN(C)c2ncnc3[nH]c(-c4cn(CC5CCOCC5)nn4)cc23)c1 [Compound 31a, N-Methyl-N-(3-methylbenzyl)-6-(1-((tetrahydro-2H-pyran-4-yl)methyl)-1H-1,2,3-triazol-4-yl)-7H-pyrrolo[2,3-d]pyrimidin-4-amine]	> 10000 nM
2.1 nM	> 10000 nM	11 µM (≈ 4.48 µg/mL)	No measurable cell activity	CN(CC1CCOCC1)c1ncnc2[nH]c(-c3cn(-c4ccc(F)cc4)nn3)cc12 [Compound 19b, 6-(1-(4-Fluorophenyl)-1H-1,2,3-triazol-4-yl)-N-methyl-N-((tetrahydro-2H-pyran-4-yl)methyl)-7H-pyrrolo[2,3-d]pyrimidin-4-amine]	> 10000 nM
